pEC50: −log10 of the molar value.

The first experiment deals with T1, Thrombopoietin receptor (Homo sapiens, UniProt P40238).
T1 sequence (P40238 whole entry): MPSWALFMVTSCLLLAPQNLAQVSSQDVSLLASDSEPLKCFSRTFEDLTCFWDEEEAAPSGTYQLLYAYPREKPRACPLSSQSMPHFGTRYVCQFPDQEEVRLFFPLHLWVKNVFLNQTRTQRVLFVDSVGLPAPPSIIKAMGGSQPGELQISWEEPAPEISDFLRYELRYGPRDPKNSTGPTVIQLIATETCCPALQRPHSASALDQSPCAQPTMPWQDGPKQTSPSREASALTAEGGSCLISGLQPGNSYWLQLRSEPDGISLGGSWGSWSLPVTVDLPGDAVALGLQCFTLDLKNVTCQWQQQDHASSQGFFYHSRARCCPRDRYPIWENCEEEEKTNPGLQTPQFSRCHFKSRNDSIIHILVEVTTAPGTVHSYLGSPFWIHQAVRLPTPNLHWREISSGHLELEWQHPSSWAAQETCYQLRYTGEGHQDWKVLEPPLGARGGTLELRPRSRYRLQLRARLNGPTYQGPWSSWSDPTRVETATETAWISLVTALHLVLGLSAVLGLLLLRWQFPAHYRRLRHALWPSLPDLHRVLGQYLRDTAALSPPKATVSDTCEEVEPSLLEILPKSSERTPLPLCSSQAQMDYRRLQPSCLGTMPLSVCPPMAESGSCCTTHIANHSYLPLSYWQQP
The experiment can be described thus: Agonist activity at TPO receptor. The class given is functional.
One may read the pEC50 as −log10 of the EC50, conventionally taken in molar units. The compound `Nc1nc(-c2ccc(F)c(C(F)(F)F)c2)cs1` gave a negative logarithm of the EC50 (pEC50) of 7.00. `Nc1nc(-c2c(F)cccc2F)cs1` had a negative-log EC50 (pEC50) below 5.00. `Nc1nc(-c2ccccc2F)cs1` showed a negative-log EC50 (pEC50) of 5.17. As to `Nc1nc(-c2ccc(F)c(C(F)(F)F)c2)c(F)s1`, the pEC50 was 7.05.

Regarding `Cc1sc(N)nc1-c1ccc(F)c(C(F)(F)F)c1`, the pEC50 was 6.74. In turn, `Nc1nc(-c2cccc(C(F)(F)F)c2F)cs1` showed a negative-log EC50 (pEC50) of 7.24.

`O=C(Nc1nc2c(s1)COc1c(Cl)cccc1-2)c1ccc(Nc2ccncn2)cc1` showed a negative logarithm of the EC50 (pEC50) of 6.28. Regarding `Nc1nc(-c2cccc(OC(F)(F)F)c2F)cs1`, the pEC50 is 7.49.

`O=C(Nc1nc2c(s1)COc1c(F)cccc1-2)c1ccc(Nc2ccncn2)cc1` showed a pEC50 of 5.82. In the case of `Nc1nc(-c2cc(C(F)(F)F)ccc2F)cs1`, the pEC50 is 5.28. Compared with the last compound, the pEC50 is 0.54 log units lower. Same read-out and setting: with `Nc1nc(-c2cccc(C(F)(F)F)c2F)c(F)s1` the figure was 6.15. The same measure, in the same setting: the figure for `Cc1sc(N)nc1-c1cccc(C(F)(F)F)c1F` is 6.27; for `Nc1nc(-c2ccc(C(F)(F)F)cc2F)cs1` it is 6.59. Compound `O=C(Nc1nc2c(s1)COc1ccccc1-2)c1ccc(Nc2ccncn2)cc1` showed a negative-log EC50 (pEC50) of 6.28.

The target of the next experiment is T2, Thrombopoietin receptor (Homo sapiens) (UniProt P40238).
T2 sequence (whole entry): T1 sequence (P40238 whole entry)
The experiment in a line: Agonist activity at TPO receptor at 10 uM. The class given is functional.
For the compound `Nc1nc(-c2c(F)cccc2F)cs1`, the Activity was determined as 0%. Compound `O=C(Nc1nc(-c2ccccc2C(F)(F)F)cs1)c1ccc(Nc2ccncn2)cc1` displayed an Activity of 38%. On the same count and under the same terms, the figure for `O=C(Nc1nc(-c2ccccc2F)cs1)c1ccc(Nc2ccncn2)cc1` is 58%; for `O=C(Nc1nc(-c2c(F)cccc2F)cs1)c1ccc(Nc2ccncn2)cc1` it is 0%; for `O=C(Nc1nc(-c2cccc(F)c2)cs1)c1ccc(Nc2ccncn2)cc1` it is 45%.

These data come from ChEMBL document CHEMBL1145600, “Molecular features crucial to the activity of pyrimidine benzamide-based thrombopoietin receptor agonists” (Bioorg Med Chem Lett, 2008).
